Source: US20240041042A1, “1-(PYRIDYL)-5-AZINYLPYRAZOLE DERIVATIVES, AND THEIR USE FOR CONTROL OF UNDESIRED PLANT GROWTH” (Bayer Aktiengesellschaft, priority 2020, published 2024)
Where two headings read alike, the source gives them in different places.

Tests used:
Type in all cases: in vivo
[1] = system: Polygonum convolvulus (POLCO); test: Post-emergence herbicidal action against POLCO
Outline: (§1)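 Doses of 320 g/ha or lower, suffixes a, b and c marking different dosages, were applied post-emergence at the one-leaf stage in 600 l/ha water with 0.5% additive. Damage was assessed visually after about 3 weeks in the greenhouse.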

[2] = system: Setaria viridis (SETVI); test: Pre-emergence herbicidal action against SETVI; conditions: dosage 320 g/ha
Outline: (§2)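 Seeds sown in pots and covered with soil; WP or EC formulations sprayed onto the soil surface at 600 l/ha water with 0.5% additive, at 320 g/ha or lower. Greenhouse growth for about 3 weeks, then visual scoring as % effect against untreated controls (100% = plants dead).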

[3] = system: Lolium rigidum (LOLRI); test: Pre-emergence herbicidal action against LOLRI
Outline: as §2

[4] = system: Echinochloa crus-galli (ECHCG); test: Post-emergence herbicidal action against ECHCG
Outline: as §1

[5] = system: Echinochloa crus-galli (ECHCG); test: Pre-emergence herbicidal action against ECHCG; conditions: dosage 320 g/ha
Outline: as §2

[6] = system: Zea mays (ZEAMX); conditions: pre-emergence, 80 g/ha, crop plant compatibility, in comparison to untreated controls
Description: Seeds of monocotyledonous and dicotyledonous weed plants and crop plants are placed in plastic or organic planting pots and covered with soil. The compounds of the invention, formulated in the form of wettable powders (WP) or as emulsion concentrates (EC), are then applied to the surface of the covering soil as aqueous suspension or emulsion with addition of 0.5% additive at a water application rate equivalent to 600 l/ha. After the treatment, the pots are placed in a greenhouse and kept under good growth conditions for the trial plants. After about 3 weeks, the effect of the preparations is scored visually in comparison with untreated controls as percentages. For example, 100% activity=the plants have died, 0% activity=like control plants.
The observed effects on selected crop plants are reported here in comparison to the untreated controls (values in %). The appendices “a” “b” and “c” give differentiation by dosage used with otherwise the same crop plants tested.

[7] = system: Polygonum convolvulus (POLCO); test: Pre-emergence herbicidal action against POLCO
Outline: as §2

[8] = system: Amaranthus retroflexus (AMARE); test: Pre-emergence herbicidal action against AMARE; conditions: visual scoring after about 3 weeks vs untreated controls
Outline: as §2

[9] = system: Matricaria inodora (MATIN); test: Pre-emergence herbicidal action against MATIN; conditions: dosage 320 g/ha
Outline: as §2

[10] = system: Oryza sativa (ORYSA); conditions: crop plant compatibility
Outline: (§3)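 Test crops were treated 2 to 3 weeks after sowing, once they reached one leaf, by spraying compound in water with 0.5% additive at 600 l/ha. Visual scoring compared them with untreated controls roughly 3 weeks on, and appendices a, b and c denote different doses.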

[11] = system: Pharbitis purpurea (PHBPU); test: Post-emergence herbicidal action against PHBPU
Outline: as §1

[12] = system: Setaria viridis (SETVI); test: Post-emergence herbicidal action against SETVI
Outline: as §1

[13] = system: Viola tricolor (VIOTR); test: Post-emergence herbicidal action against VIOTR
Outline: as §1

[14] = system: Viola tricolor (VIOTR); test: Pre-emergence herbicidal action against VIOTR
Outline: as §2

[15] = system: Matricaria inodora (MATIN); test: Post-emergence herbicidal action against MATIN
Outline: as §1

[16] = system: Amaranthus retroflexus (AMARE); test: Post-emergence herbicidal action against AMARE
Outline: as §1

[17] = system: Verconica persica (VERPE); test: Post-emergence herbicidal action against VERPE
Outline: as §1

[18] = system: Verconica persica (VERPE); test: Pre-emergence herbicidal action against VERPE
Outline: as §2

[19] = system: Pharbitis purpurea (PHBPU); test: Pre-emergence herbicidal action against PHBPU; conditions: dosage 320 g/ha
Outline: as §2

[20] = system: Abutilon theophrasti (ABUTH); test: Post-emergence herbicidal action against ABUTH; conditions: visual rating about 3 weeks after treatment vs untreated controls (100% = plants have died, 0% = like control plants)
Outline: as §1

[21] = system: Alopecurus myosuroides (ALOMY); test: Pre-emergence herbicidal action against ALOMY; conditions: 320 g/ha; scored visually after about 3 weeks; 100% = plants have died
Outline: as §2

[22] = system: Zea mays (ZEAMX)
Outline: as §3

[23] = system: Digitaria sanguinalis (DIGSA); test: Post-emergence herbicidal action against DIGSA; conditions: visual rating about 3 weeks after treatment
Outline: as §1

[24] = system: Alopecurus myosuroides (ALOMY); test: Post-emergence herbicidal action against ALOMY; conditions: visual rating about 3 weeks after treatment vs untreated controls (100% = plants have died, 0% = like control plants)
Outline: as §1

[25] = system: Lolium rigidum (LOLRI); test: Post-emergence herbicidal action against LOLRI
Outline: as §1

[26] = system: Triticum aestivum (TRZAS); conditions: crop plant compatibility, 20 g/ha, effect vs untreated controls
Outline: as §3

[27] = system: Avena fatua (AVEFA); test: Post-emergence herbicidal action against AVEFA; conditions: visual rating about 3 weeks after treatment
Outline: as §1

[28] = system: Avena fatua (AVEFA); test: Pre-emergence herbicidal action against AVEFA; conditions: 320 g/ha, visual scoring after about 3 weeks vs untreated controls
Outline: as §2

[29] = 80 g/ha, effect in comparison to untreated controls
[30] = 80 g/ha, visual rating about 3 weeks after treatment vs untreated controls (100% = plants have died, 0% = like control plants)
[31] = 320 g/ha, visual rating about 3 weeks after treatment

Structure (SMILES) | Post-emergence action against POLCO in % ([1]; dosage 320 g/ha) | Pre-emergence action against SETVI in % [2] | Pre-emergence action against LOLRI in % ([3]; dosage 320 g/ha) | Post-emergence action against ECHCG in % ([4]; dosage 80 g/ha) | Post-emergence action against ECHCG in % ([4]; dosage 320 g/ha) | Pre-emergence action against ECHCG in % [5] | Pre-emergence action against ZEAMX in % [6] | Pre-emergence action against POLCO in % ([7]; dosage 320 g/ha) | Pre-emergence action against AMARE in % ([8]; 320 g/ha) | Post-emergence action against ORYSA in % [10, 29] | Post-emergence action against PHBPU in % ([11]; dosage 320 g/ha) | Post-emergence action against SETVI in % ([12]; dosage 320 g/ha) | Post-emergence action against VIOTR in % ([13]; 80 g/ha) | Post-emergence action against VIOTR in % ([13]; 320 g/ha) | Pre-emergence action against VIOTR in % ([14]; 320 g/ha, Viola tricolor) | Post-emergence action against AMARE in % [16, 30] | Post-emergence action against AMARE in % [16, 31] | Post-emergence action against VERPE in % ([17]; 320 g/ha, VERPE) | Post-emergence action against VERPE in % ([17]; dosage 80 g/ha) | Post-emergence action against ABUTH in % ([20]; 320 g/ha) | further results
O=C(O)CSc1nn(-c2ccccn2)c(-c2cncc(F)c2)c1I [Example I-229] | 80% | 90% | 80% | 80% | 80% | 90% | 0% | 90% | 80% | 0% | 80% | 80% | 80% | 80% | 90% | 80% | 80% | – | – | – | Pre-emergence action against MATIN in % [9]: 80%; Post-emergence action against SETVI in % ([12]; dosage 80 g/ha): 80%; Post-emergence action against MATIN in % ([15]; dosage 320 g/ha): 80%
COCCOC(=O)COc1nn(-c2ncccc2C(F)(F)F)c(-c2cncc(F)c2)c1Br [Example I-157] | – | – | – | 80% | 90% | 80% | 10% | 90% | – | 10% | 80% | 80% | – | – | 100% | – | – | 90% | 80% | 80% | Pre-emergence action against VERPE in % ([18]; dosage 320 g/ha): 90%; Pre-emergence action against PHBPU in % [19]: 90%; Pre-emergence action against ALOMY [21]: 80%; Post-emergence action against ZEAMX in % ([22]; crop plant compatibility, 80 g/ha, effect vs untreated controls): 20%; Pre-emergence action against VIOTR in % ([14]; dosage 80 g/ha): 80%
CCOC(=O)COc1nn(-c2ncccc2C)c(-c2cncc(F)c2)c1Cl [Example I-181] | 80% | – | – | 90% | 100% | – | – | – | – | – | 100% | 90% | 90% | 90% | – | 80% | 90% | 90% | 90% | 80% | Post-emergence action against POLCO in % ([1]; dosage 80 g/ha): 80%; Post-emergence action against DIGSA in % ([23]; 80 g/ha): 90%; Post-emergence action against DIGSA in % ([23]; 320 g/ha): 90%; Post-emergence action against ALOMY in % ([24]; 80 g/ha): 80%; Post-emergence action against ALOMY in % ([24]; 320 g/ha): 90%; Post-emergence action against LOLRI in % ([25]; dosage 320 g/ha): 80%; Post-emergence action against ABUTH in % ([20]; 80 g/ha): 80%; Post-emergence action against TRZAS in % [26]: 20%; Post-emergence action against ORYSA in % ([10]; 20 g/ha, effect vs untreated controls): 0%; Post-emergence action against ZEAMX in % (crop plant compatibility) ([22]; 20 g/ha, ZEAMX, effect in comparison to untreated controls): 20%; Post-emergence action against PHBPU in % ([11]; dosage 80 g/ha): 90%; Post-emergence action against AVEFA in % ([27]; 320 g/ha): 90%; Post-emergence action against SETVI in % ([12]; dosage 80 g/ha): 80%; Post-emergence action against MATIN in % ([15]; dosage 80 g/ha): 80%; Post-emergence action against MATIN in % ([15]; dosage 320 g/ha): 80%
CCOC(=O)[C@@H](C)Oc1nn(-c2ncccc2Cl)c(-c2ccc(F)nc2)c1Br [Example I-27] | 80% | 100% | 100% | 90% | 90% | 100% | 20% | 100% | 100% | 0% | – | 90% | 80% | 80% | 100% | 90% | 90% | 90% | 80% | 90% | Post-emergence action against POLCO in % ([1]; dosage 80 g/ha): 80%; Pre-emergence action against AVEFA in % [28]: 100%; Post-emergence action against ALOMY in % ([24]; 80 g/ha): 80%; Post-emergence action against ALOMY in % ([24]; 320 g/ha): 100%; Post-emergence action against LOLRI in % ([25]; dosage 80 g/ha): 90%; Post-emergence action against LOLRI in % ([25]; dosage 320 g/ha): 90%; Pre-emergence action against VERPE in % ([18]; dosage 80 g/ha): 80%; Pre-emergence action against VERPE in % ([18]; dosage 320 g/ha): 100%; Pre-emergence action against LOLRI in % ([3]; dosage 80 g/ha): 100%; Pre-emergence action against POLCO in % ([7]; dosage 80 g/ha): 90%; Pre-emergence action against AMARE in % ([8]; 80 g/ha): 90%; Pre-emergence action against MATIN in % [9]: 80%; Pre-emergence action against ALOMY [21]: 100%; Post-emergence action against AVEFA in % ([27]; 80 g/ha): 100%; Post-emergence action against AVEFA in % ([27]; 320 g/ha): 100%; Pre-emergence action against VIOTR in % ([14]; dosage 80 g/ha): 100%
